Experiments:
[1] = target: human butyrylcholinesterase (hBChE; EC 3.1.1.8) (Homo sapiens, UniProt P06276); experiment: biochemical; details: mean of at least three experiments; read-out: IC50 hBChE ± STD
Procedure: (§1) For that purpose, Ellman’s colorimetric assay was used[35].
(§2) The catalytic activity of both cholinesterases was determined by standard Ellman’s method adapted for 96-well plates. All tested inhibitors were freshly prepared in 50% DMSO/50% methanol at 10 mM concentration as stock solutions and then diluted in 0.1 M phosphate buffer, pH 7.4. […] The mixture was pre-incubated at 37 °C for 15 min and subsequently substrate (acetylthiocholine iodide or butyrylthiocholine iodide) was added to the final concentration of 1000 μM. The final volume of the reaction was 100 μL. The catalytic activity was evaluated as the amount of product (%) formed by enzyme after 10 min of incubation at 37 °C. The IC50 values from three independent experiments for each inhibitor concentration in triplicate were calculated using non-linear regression curve analysis in Prism version 7 Software (GraphPad Software Inc., San Diego, CA).

[2] = target: human AChE (hAChE; EC 3.1.1.7) (Homo sapiens, UniProt P22303); experiment: biochemical; details: for IC50: mean of at least three experiments, read-out: IC50 hAChE ± STD; for SI (hBChE/hAChE): ratio IC50(hBChE)/IC50(hAChE)
Procedure: as §1, §2

[3] = target: T1, hMAO-A (Homo sapiens, UniProt P21397); experiment: hMAO-A inhibition, kynuramine substrate, HPLC-MS; assay type: biochemical; details: residual enzyme activity; for % of MAO-A activity (1 µM): compound at 1 µM; for % of MAO-A activity (10 µM): compound at 10 µM
T1 construct: purchased Sigma-Aldrich (St. Louis, MO, USA)
T1 sequence (P21397 1-527): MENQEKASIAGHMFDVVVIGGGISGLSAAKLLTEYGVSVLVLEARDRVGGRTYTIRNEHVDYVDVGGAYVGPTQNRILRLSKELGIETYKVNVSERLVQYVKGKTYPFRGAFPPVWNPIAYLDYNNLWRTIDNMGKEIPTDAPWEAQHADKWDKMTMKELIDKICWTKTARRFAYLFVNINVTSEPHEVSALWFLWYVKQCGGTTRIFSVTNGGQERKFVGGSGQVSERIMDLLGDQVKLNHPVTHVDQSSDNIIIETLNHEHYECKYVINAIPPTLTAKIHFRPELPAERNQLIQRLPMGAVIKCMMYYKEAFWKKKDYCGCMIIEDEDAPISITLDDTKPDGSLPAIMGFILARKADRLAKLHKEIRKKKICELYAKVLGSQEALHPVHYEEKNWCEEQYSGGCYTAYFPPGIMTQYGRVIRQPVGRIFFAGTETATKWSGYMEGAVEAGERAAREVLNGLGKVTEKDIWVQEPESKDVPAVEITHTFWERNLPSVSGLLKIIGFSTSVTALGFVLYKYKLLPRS
Procedure: (§3) The hMAO-A and hMAO-B enzymes were purchased from Sigma-Aldrich (St. Louis, MO, USA). […] The mixture was pre-incubated at 37 °C for 5 min and subsequently substrate kynuramine was added to the final concentration of 60 µM in the case of hMAO-A and 30 µM in the case of hMAO-B. The final volume of reaction mixture was 0.1 mL. The whole reaction mixture was incubated at 37 °C for 30 min. The reaction was stopped by the addition of 200 µL acetonitrile/methanol mixture (ratio 1:1) and cooling down to 0 °C. […] Eluents: (A) 0.1% formic acid in water; (B) 0.1% formic acid in acetonitrile.

[4] = target: T2, hMAO-B (Homo sapiens, UniProt P27338); experiment: biochemical; details: residual enzyme activity; for % of MAO-B activity (1 µM): compound at 1 µM; for % of MAO-B activity (10 µM): compound at 10 µM
T2 construct: purchased Sigma-Aldrich (St. Louis, MO, USA)
T2 sequence (P27338 1-520): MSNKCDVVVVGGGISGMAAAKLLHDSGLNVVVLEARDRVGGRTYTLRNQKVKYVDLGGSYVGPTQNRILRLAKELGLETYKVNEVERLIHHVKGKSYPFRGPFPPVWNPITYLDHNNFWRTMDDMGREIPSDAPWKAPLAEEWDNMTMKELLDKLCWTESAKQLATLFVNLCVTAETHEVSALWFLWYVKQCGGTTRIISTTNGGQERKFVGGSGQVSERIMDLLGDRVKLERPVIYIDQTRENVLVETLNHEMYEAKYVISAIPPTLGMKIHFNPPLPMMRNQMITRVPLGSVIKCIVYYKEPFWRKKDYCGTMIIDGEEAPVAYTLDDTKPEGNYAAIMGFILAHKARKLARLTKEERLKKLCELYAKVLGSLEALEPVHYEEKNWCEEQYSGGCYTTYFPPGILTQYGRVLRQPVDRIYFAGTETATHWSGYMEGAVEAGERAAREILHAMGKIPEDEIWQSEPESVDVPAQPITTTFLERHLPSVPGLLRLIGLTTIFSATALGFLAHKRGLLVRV
Procedure: as §3

Sequence of human AChE (hAChE; EC 3.1.1.7) (P22303 32-614): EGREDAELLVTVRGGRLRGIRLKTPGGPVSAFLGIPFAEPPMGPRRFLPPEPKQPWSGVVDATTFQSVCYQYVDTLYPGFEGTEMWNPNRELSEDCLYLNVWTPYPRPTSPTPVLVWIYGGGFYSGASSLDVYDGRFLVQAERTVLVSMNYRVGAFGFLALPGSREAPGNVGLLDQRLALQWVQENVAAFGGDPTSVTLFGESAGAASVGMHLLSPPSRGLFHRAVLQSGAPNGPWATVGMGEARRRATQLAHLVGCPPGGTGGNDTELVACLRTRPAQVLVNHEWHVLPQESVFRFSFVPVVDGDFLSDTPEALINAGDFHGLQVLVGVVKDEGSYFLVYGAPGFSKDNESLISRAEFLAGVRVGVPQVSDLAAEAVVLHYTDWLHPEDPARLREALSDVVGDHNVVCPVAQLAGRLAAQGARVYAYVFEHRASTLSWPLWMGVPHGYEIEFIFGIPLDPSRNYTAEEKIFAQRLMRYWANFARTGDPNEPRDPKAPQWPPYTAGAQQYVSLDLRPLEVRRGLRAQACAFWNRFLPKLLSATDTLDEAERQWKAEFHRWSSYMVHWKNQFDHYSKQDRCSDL
Sequence of human butyrylcholinesterase (hBChE; EC 3.1.1.8) (P06276 29-602): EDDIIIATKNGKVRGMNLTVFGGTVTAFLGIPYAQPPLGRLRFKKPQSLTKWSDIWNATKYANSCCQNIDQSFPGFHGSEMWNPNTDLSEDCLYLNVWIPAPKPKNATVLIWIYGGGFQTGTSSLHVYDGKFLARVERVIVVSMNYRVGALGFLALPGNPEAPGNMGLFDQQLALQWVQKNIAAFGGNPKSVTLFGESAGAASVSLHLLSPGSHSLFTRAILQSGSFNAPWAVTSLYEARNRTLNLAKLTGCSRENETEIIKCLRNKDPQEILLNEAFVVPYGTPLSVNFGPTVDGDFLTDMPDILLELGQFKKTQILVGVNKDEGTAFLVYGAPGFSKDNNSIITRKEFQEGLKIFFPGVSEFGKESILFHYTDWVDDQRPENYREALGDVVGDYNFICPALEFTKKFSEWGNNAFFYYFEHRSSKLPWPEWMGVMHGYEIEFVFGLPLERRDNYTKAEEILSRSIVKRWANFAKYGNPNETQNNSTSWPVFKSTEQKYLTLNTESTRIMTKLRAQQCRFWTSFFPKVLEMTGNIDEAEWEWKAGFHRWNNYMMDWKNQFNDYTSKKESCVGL

| Structure (SMILES) | IC50 [1] | IC50 [2] | SI (hBChE/hAChE) [2] | % of MAO-A activity (1 µM) [3] | % of MAO-A activity (10 µM) [3] | % of MAO-B activity (1 µM) [4] | % of MAO-B activity (10 µM) [4] |
| --- | --- | --- | --- | --- | --- | --- | --- |
| C=CCN(CC=C)c1c2c(nc3ccc(Oc4ccccc4)cc13)CCCC2.Cl [Compound 6, 7-Phenoxy-N,N-di(prop-2-en-1-yl)-1,2,3,4-tetrahydroacridin-9-amine hydrochloride] | 13.2 ± 0.408 µM | 9540 ± 138 nM | 1.38 | 76% | 78% | 16% | 4% |
| C#CCN(CC#C)c1c2c(nc3ccc(Oc4ccccc4)cc13)CCCC2.Cl [Compound 14, 7-Phenoxy-N,N-di(prop-2-yn-1-yl)-1,2,3,4-tetrahydroacridin-9-amine hydrochloride] | 12.2 ± 0.713 µM | 2880 ± 84 nM | 4.23 | 93% | 47% | 73% | 14% |
| C#CCNc1ccnc2cc(Cl)ccc12.Cl [Compound 28, 7-Chloro-N-(prop-2-yn-1-yl)quinolin-4-amine hydrochloride] | – | 8720 ± 242 nM | – | 39% | 31% | 150% | 61% |
| C#CCNCCCNc1c2c(nc3ccc(Oc4ccccc4)cc13)CCCC2.Cl.Cl [Compound 26, N-(7-Phenoxy-1,2,3,4-tetrahydroacridin-9-yl)-N'-(prop-2-yn-1-yl)-propane-1,3-diamine dihydrochloride] | 1.06 ± 0.062 µM | 1040 ± 40 nM | 1.02 | 88% | 79% | 14% | 4% |
| C#CCN(CC#C)c1c2c(nc3cc(Cl)ccc13)CCCC2 [Compound 10] | 10.9 ± 1.02 µM | 105 ± 4 nM | 103.52 | 92% | 92% | 106% | 141% |
| C=CCN(CC=C)c1c2c(nc3ccc(OC)cc13)CCCC2.Cl [Compound 4, 7-Methoxy-N,N-di(prop-2-en-1-yl)-1,2,3,4-tetrahydroacridin-9-amine hydrochloride] | 8.76 ± 0.292 µM | 3690 ± 113 nM | 2.37 | 103% | 107% | 83% | 61% |
| C=CCN(CC=C)c1c2c(nc3ccccc13)CCCC2.Cl [Compound 1, N,N-Di(prop-2-en-1-yl)-1,2,3,4-tetrahydroacridin-9-amine hydrochloride] | 0.716 ± 0.035 µM | 493 ± 12 nM | 1.45 | 95% | 85% | 89% | 62% |
| C#CCN(CC#C)CCCNc1c2c(nc3cc(Cl)ccc13)CCCC2.Cl.Cl [Compound 22, N'-(6-Chloro-1,2,3,4-tetrahydroacridin-9-yl)-N,N-di(prop-2-yn-1-yl)propane-1,3-diamine dihydrochloride] | 0.17 ± 0.013 µM | 61 ± 2 nM | 2.79 | 107% | 102% | 87% | 50% |
| C=CCNc1c2c(nc3ccccc13)CCCC2.Cl [Compound 2, N-(prop-2-en-1-yl)-1,2,3,4-tetrahydroacridin-9-amine hydrochloride] | 0.488 ± 0.019 µM | 303 ± 4 nM | 1.61 | 78% | 58% | 48% | 72% |
| C=CCNc1c2c(nc3cc(Cl)ccc13)CCCC2.Cl [Compound 3, 6-Chloro-N-(prop-2-en-1-yl)-1,2,3,4-tetrahydroacridin-9-amine hydrochloride] | 3.22 ± 0.129 µM | 70 ± 1 nM | – | 76% | 73% | 71% | 64% |
| C=CCNc1c2c(nc3ccc(OC)cc13)CCCC2.Cl [Compound 5, 7-Methoxy-N-(prop-2-en-1-yl)-1,2,3,4-tetrahydroacridin-9-amine hydrochloride] | 12.5 ± 0.387 µM | 2270 ± 62 nM | 5.52 | 97% | 62% | 82% | 70% |
| C#CCNc1c2c(nc3ccc(OC)cc13)CCCC2.Cl [Compound 13, 7-Methoxy-N-(prop-2-yn-1-yl)-1,2,3,4-tetrahydroacridin-9-amine hydrochloride] | 3.76 ± 0.21 µM | 1360 ± 39 nM | 2.75 | 96% | 82% | 74% | 62% |
| C=CCNc1ccnc2cc(Cl)ccc12.Cl [Compound 27, 7-Chloro-N-(prop-2-en-1-yl)quinolin-4-amine hydrochloride] | 66.3 ± 2.07 µM | 10700 ± 406 nM | 6.18 | 54% | 19% | 150% | 127% |
| C#CCN(CC#C)CCCNc1c2c(nc3ccc(OC)cc13)CCCC2.Cl.Cl [Compound 24, N-(7-Methoxy-1,2,3,4-tetrahydroacridin-9-yl)-N',N'-di(prop-2-yn-1-yl)-propane-1,3-diamine dihydrochloride] | 1.04 ± 0.06 µM | 1950 ± 46 nM | 0.53 | 60% | 70% | 169% | 82% |
| C#CCN(CC#C)c1c2c(nc3ccc(OC)cc13)CCCC2.Cl [Compound 12, 7-Methoxy-N,N-di(prop-2-yn-1-yl)-1,2,3,4-tetrahydroacridin-9-amine hydrochloride] | 7.97 ± 0.3 µM | 5120 ± 184 nM | 1.56 | 123% | 114% | 63% | 45% |
| C#CCN(CC#C)c1c2c(nc3ccccc13)CCCC2.Cl [Compound 8, N,N-Di(prop-2-yn-1-yl)-1,2,3,4-tetrahydroacridin-9-amine hydrochloride] | 0.937 ± 0.043 µM | 186 ± 5 nM | 5.04 | 103% | 111% | 59% | 47% |

Reference: article PMC9518283 (Journal of Enzyme Inhibition and Medicinal Chemistry, 2022)
